These results are taken from ChEMBL document CHEMBL1201862, “PubChem BioAssay data set” (2004).

Test systems include HT-29; EKVX; HCT-15; CCRF-CEM; OVCAR-8; A498; SR; Hs-578T; SN12C; SW-620; MOLT-4; HL-60; SF-295; LOX IMVI; HOP-92; Malme-3M; 786-0; T47D; HOP-62; OVCAR-3.
Experiment in all cases: NCI anticancer screen, dose series, 48 h

Each structure is given as a SMILES string.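 Assay format: 96-well plates, 48-hour exposure. GI50 marks 50% less growth.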 Active and inactive are the calls of the source. Cut-off read from the data, not from the text of the source: active = GI50 up to about 1.1 µM and inactive = higher.

`COc1cccc(CCn2c(N)c(-c3cc(Cl)cc(Cl)c3)c3ccc([N+](=O)[O-])cc3c2=O)c1`: the GI50 in the assay with HT-29 is 5.52 µM (inactive); in the assay with EKVX, 4.69 µM (inactive); in the assay on HCT-15 it was 3.19 µM; with CCRF-CEM it was 0.787 µM (active); in the assay on OVCAR-8, 3.81 µM (inactive); in the assay on A498, 3.56 µM (inactive). The GI50 is 0.897 µM (active) in the assay with SR; 3.19 µM (inactive) in the assay on Hs-578T; 5 µM (inactive) in the assay on SN12C; 4.04 µM (inactive) in the assay on SW-620; 1.88 µM (inactive) in the assay on MOLT-4; 0.811 µM (active) in the assay on HL-60. Besides, the GI50 in the assay on SF-295 was 3.73 µM (inactive); in the assay on LOX IMVI it was 3.61 µM (inactive); with HOP-92, 2.85 µM (inactive); with Malme-3M, 2.83 µM (inactive); in the assay on 786-0 it was 4.91 µM (inactive); in the assay on T47D, 2.78 µM (inactive). The GI50 in the assay on HOP-62 is 5.21 µM (inactive); with OVCAR-3, 3.13 µM (inactive).

As to `CC(C)C[C@H](NC(=O)CCc1ccccc1)B(O)O`, the GI50 is 2.85 µM (inactive) in the assay on HT-29; 42.1 µM (inactive) in the assay with EKVX; 17.3 µM with HCT-15; 2.33 µM (inactive) in the assay on CCRF-CEM; 19.7 µM (inactive) in the assay on OVCAR-8; 3.19 µM (inactive) in the assay with A498. The GI50 with SR is 2.72 µM (inactive); in the assay with Hs-578T, 5.78 µM (inactive); in the assay with SN12C it was 16.8 µM (inactive); in the assay with SW-620, 4.83 µM (inactive); in the assay with MOLT-4 it was 3.04 µM (inactive); in the assay with HL-60 it was 2.15 µM (inactive). Besides, the GI50 is 12 µM (inactive) in the assay on SF-295; 4.63 µM (inactive) with LOX IMVI; 29.4 µM (inactive) in the assay with HOP-92; 11.7 µM (inactive) in the assay with Malme-3M; 12.3 µM (inactive) in the assay with 786-0; 18.7 µM (inactive) in the assay on T47D. Also, the GI50 in the assay on HOP-62 is 16.8 µM (inactive); in the assay on OVCAR-3, 3.63 µM (inactive).

With `COc1ccc(/C=N/NC(=S)Nc2cc(C)ccc2OC)cc1`, the GI50 was 10.1 µM (inactive) with HT-29; 20.8 µM (inactive) with EKVX; 10 µM in the assay on HCT-15; 22.3 µM (inactive) in the assay with CCRF-CEM; 37.6 µM (inactive) with OVCAR-8; 35.2 µM (inactive) with A498. Besides, the GI50 in the assay on SR is 9.08 µM (inactive); with Hs-578T, 78.5 µM (inactive); with SN12C it was 25.1 µM (inactive); in the assay on SW-620, 34.7 µM (inactive); in the assay with MOLT-4, 9.98 µM (inactive); with HL-60, 20.3 µM (inactive). Further, the GI50 in the assay on SF-295 was 37.4 µM (inactive); in the assay on LOX IMVI, 43.8 µM (inactive); in the assay on HOP-92, 25.2 µM (inactive); in the assay with Malme-3M, 25.8 µM (inactive); with 786-0 it was 22.7 µM (inactive); in the assay with T47D it was 32.9 µM (inactive). For the same compound, the GI50 is 34.8 µM (inactive) in the assay on HOP-62 and 40.2 µM (inactive) with OVCAR-3.

Turning to `CC(C)OC(=O)c1ccc(NCc2cc(O)ccc2O)cc1`, the GI50 was 13.7 µM (inactive) in the assay on HT-29; 3.82 µM (inactive) in the assay on EKVX; 2.69 µM with HCT-15; 0.27 µM (active) in the assay with CCRF-CEM; 2.51 µM (inactive) in the assay on OVCAR-8; 22.5 µM (inactive) in the assay with A498. Besides, the GI50 is 1.06 µM (active) in the assay on SR; 2.04 µM (inactive) in the assay on Hs-578T; 1.71 µM (inactive) in the assay with SN12C; 4.86 µM (inactive) with SW-620; 1.39 µM (inactive) in the assay on MOLT-4; 0.462 µM (active) with HL-60. The GI50 is 6.3 µM (inactive) in the assay on SF-295; 3.4 µM (inactive) in the assay with LOX IMVI; 1.95 µM (inactive) in the assay with HOP-92; 2.16 µM (inactive) in the assay on Malme-3M; 2.84 µM (inactive) in the assay with 786-0; 2.18 µM (inactive) in the assay with T47D. Besides, the GI50 with HOP-62 was 4.98 µM (inactive); with OVCAR-3 it was 1.47 µM (inactive).

For the compound `c1cc2c(cc1C1=NCCN1)c1cc(C3=NCCN3)ccc1n2CC1CCCCC1`, the GI50 is 11.5 µM (inactive) in the assay with HT-29; 14.1 µM (inactive) in the assay on EKVX; more than 100 µM with HCT-15; 11.5 µM (inactive) in the assay on CCRF-CEM; 25.4 µM (inactive) in the assay on OVCAR-8; > 100 µM (inactive) with A498. Besides, the GI50 was 7.26 µM (inactive) in the assay with SR; 6.19 µM (inactive) with Hs-578T; 14 µM (inactive) in the assay on SN12C; 20.4 µM (inactive) in the assay on SW-620; 5.05 µM (inactive) in the assay with MOLT-4; 14.3 µM (inactive) with HL-60. Further, the GI50 was 32.1 µM (inactive) in the assay with SF-295; 16.3 µM (inactive) with LOX IMVI; 8 µM (inactive) with HOP-92; 8.11 µM (inactive) in the assay with Malme-3M; 19.4 µM (inactive) in the assay with 786-0; 19.1 µM (inactive) with T47D. Besides, the GI50 was 23.8 µM (inactive) in the assay with HOP-62 and 21.2 µM (inactive) in the assay on OVCAR-3.

In the case of `CCOC(=O)C(=O)C(/C(=N/N(C)C)C(=O)Nc1ccc(C)cc1C)c1nc2ccccc2nc1O` (stereo unspecified), the GI50 was > 100 µM (inactive) in the assay on HT-29; 49.1 µM (inactive) with EKVX; more than 100 µM in the assay on HCT-15; > 100 µM (inactive) in the assay on CCRF-CEM; > 100 µM (inactive) with OVCAR-8; > 100 µM (inactive) in the assay with A498. For the same compound, the GI50 in the assay with SR, in the assay on Hs-578T, in the assay with SN12C, in the assay with SW-620, in the assay with MOLT-4 and in the assay on HL-60 was > 100 µM (inactive) in each case. Besides, the GI50 in the assay on SF-295, with LOX IMVI, in the assay on HOP-92, in the assay on Malme-3M, in the assay on 786-0 and with T47D was > 100 µM (inactive) each time. The GI50 in the assay with HOP-62 and in the assay on OVCAR-3 was > 100 µM (inactive) throughout.

For the compound `c1ccc(C2=NNC3c4ccccc4-c4ccccc4N3C2)cc1` (stereo unspecified), the GI50 with HT-29 is 39.5 µM (inactive); in the assay with EKVX, 35.5 µM (inactive); in the assay with HCT-15 it was 48.4 µM; in the assay with OVCAR-8, 33.8 µM (inactive); in the assay on A498, 30 µM (inactive); in the assay with SR it was 21.1 µM (inactive). Besides, the GI50 in the assay with Hs-578T was 34.8 µM (inactive); in the assay with SN12C, 35.3 µM (inactive); in the assay with SW-620, 33.4 µM (inactive); with MOLT-4, 20 µM (inactive); with HL-60, 2.08 µM (inactive); in the assay with SF-295, 35.6 µM (inactive). For the same compound, the GI50 was 28.6 µM (inactive) in the assay with LOX IMVI; 52.5 µM (inactive) with HOP-92; 30.3 µM (inactive) in the assay with Malme-3M; 50 µM (inactive) in the assay with 786-0; 23.5 µM (inactive) in the assay with T47D; 46.1 µM (inactive) in the assay on HOP-62. Besides, the GI50 with OVCAR-3 was 37.5 µM (inactive).

In the case of `CCOC(=O)c1ccc(/N=C/C=C(\Nc2ccc(C(=O)OCC)cc2)C23CC4CC(CC(C4)C2)C3)cc1`, the GI50 is 26.5 µM (inactive) in the assay with HT-29; 48.4 µM (inactive) in the assay on EKVX; 92.3 µM in the assay with HCT-15; 44.3 µM (inactive) with OVCAR-8; 38.4 µM (inactive) with A498; 11.1 µM (inactive) with SR. The GI50 was > 100 µM (inactive) in the assay with Hs-578T; 53.2 µM (inactive) with SN12C; 27.5 µM (inactive) in the assay with SW-620; < 0.01 µM (active) in the assay on MOLT-4; 3.27 µM (inactive) with HL-60; 52.1 µM (inactive) with SF-295. The GI50 with LOX IMVI is 95.3 µM (inactive); in the assay on HOP-92, 15.8 µM (inactive); in the assay with Malme-3M, > 100 µM (inactive); in the assay with 786-0, 56.1 µM (inactive); with T47D, 18.3 µM (inactive); in the assay with HOP-62, > 100 µM (inactive). The GI50 in the assay on OVCAR-3 was > 100 µM (inactive).

With `O=C(O)c1cccc(Nc2c(C(=O)O)cccc2[N+](=O)[O-])c1`, the GI50 with HT-29 was > 100 µM (inactive); with EKVX, > 100 µM (inactive); in the assay on HCT-15, more than 100 µM; with CCRF-CEM it was > 100 µM (inactive); in the assay with OVCAR-8 it was > 100 µM (inactive); with A498 it was > 100 µM (inactive). The GI50 in the assay on SR, with Hs-578T, in the assay on SN12C, in the assay on MOLT-4, in the assay on HL-60 and in the assay on SF-295 was > 100 µM (inactive) in each case. In addition, the GI50 in the assay on LOX IMVI is > 100 µM (inactive); in the assay with HOP-92, > 100 µM (inactive); in the assay with Malme-3M, 38.5 µM (inactive); in the assay on 786-0, > 100 µM (inactive); with T47D, > 100 µM (inactive); in the assay on HOP-62 it was > 100 µM (inactive). In the assay on OVCAR-3, the GI50 was > 100 µM (inactive).

Regarding `CCOC(=O)c1nc2cc(F)c(N3CCOCC3)cc2[nH]c1=O`, the GI50 is > 100 µM (inactive) with HT-29; 13.9 µM (inactive) in the assay on EKVX; more than 100 µM with HCT-15; 96.4 µM (inactive) with CCRF-CEM; > 100 µM (inactive) with OVCAR-8; > 100 µM (inactive) with A498. In addition, the GI50 was 36.3 µM (inactive) in the assay with SR; 56.1 µM (inactive) in the assay on Hs-578T; > 100 µM (inactive) in the assay on SN12C; > 100 µM (inactive) in the assay with SW-620; > 100 µM (inactive) with MOLT-4; 47.5 µM (inactive) with HL-60. For the same compound, the GI50 with SF-295, in the assay on HOP-92, with Malme-3M, in the assay on 786-0, in the assay with T47D and with HOP-62 was > 100 µM (inactive) throughout. The GI50 with OVCAR-3 was > 100 µM (inactive).
